Test results reported in patent US7179825B2, “Retinoic acid mimetic anilides” (Janssen Pharmaceutica N.V., priority 1997, dated 2007).

What follows are molecules tested on Ovariectomized rats (assay: Vaginal keratinization test on ovariectomized rats (Example C.2)). Details: estradiol undecylate induced keratinization, per os once daily on days 1-3, active dose = 50% of rats show complete suppression.
Assay type: in vivo
Method in brief: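 Ovariectomized rats given s.c. estradiol undecylate (100 μg per 100 g body weight in sesame oil), then oral compound once daily on days 1-3 (vehicle PEG 200). Vaginas assessed histologically one day after last dose; lowest active dose (mg/kg) is the dose giving complete keratinization suppression in 50% of rats.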

Row | SMILES | LAD (lowest active dose)
1 | CCCCC(c1ccc(NC(=O)/C(C)=C/c2ccccc2)cc1)(C(C)C)n1ccnc1 (racemic) [Compound 761] | >5.00 mg/kg
2 | CC(C)C(c1ccc(NC(=O)Cc2ccc(O)cc2)cc1)n1ccnc1 (stereo not drawn) [Compound 668] | 5.00 mg/kg
3 | C=C(C)C(=O)Nc1ccc(C(C(C)C)n2ccnc2)cc1 (racemic) [Compound 597] | >10.00 mg/kg
4 | CC(C)NC(=O)Nc1ccc(C(C(C)C)n2ccnc2)cc1 (racemic) [Compound 268] | >10.00 mg/kg
5 | O=C(CC1COc2ccccc2O1)Nc1ccc(C(c2ccccc2)n2ccnc2)cc1 (stereo not drawn) [Compound 426] | >10.00 mg/kg
6 | CC(C)C(c1ccc(NC(=O)Nc2ccc3c(c2)OCCO3)cc1)n1ccnc1 (racemic) [Compound 276] | >10.00 mg/kg
7 | CCC(=O)Nc1ccc(C(C(C)C)n2ccnc2)cc1 (racemic) [Compound 163] | 20.00 mg/kg
8 | C/C(=C\c1ccc2[nH]c(=O)ccc2c1)C(=O)Nc1ccc(C(C(C)C)n2ccnc2)cc1 (racemic) [Compound 598] | >10.00 mg/kg
9 | O=C(/C=C/c1ccccc1)Nc1ccc(C(c2cccc(F)c2)n2cncn2)cc1 (racemic) [Compound 618] | >20.00 mg/kg
10 | C/C(=C\c1ccc2nn(C)nc2c1)C(=O)Nc1ccc(C(C(C)C)n2ccnc2)cc1 (racemic) [Compound 599] | >20.00 mg/kg
11 | CC(C(c1ccc(NC(=O)Cc2ccc(O)c(Cl)c2)cc1)n1cncn1)N(C)C (single isomer, unassigned) [Compound 289] | >2.50 mg/kg
12 | CC(C)C(c1ccc(NC(=O)Cc2cccc3ccccc23)cc1)n1ccnc1 (racemic) [Compound 246] | 10.00 mg/kg
13 | C/C(=C\c1ccc2ccccc2c1)C(=O)Nc1ccc(C(C(C)C)n2ccnc2)cc1 (racemic) [Compound 591] | >10.00 mg/kg
14 | CC(C)C(c1ccc(NC(=O)c2nccc3ccccc23)cc1)n1ccnc1 (stereo not drawn) [Compound 229] | >10.00 mg/kg
15 | CC(O)C(=O)Nc1ccc(C(C(C)C)n2ccnc2)cc1 (stereo not drawn) [Compound 249] | 5.00 mg/kg
16 | CC(C)C(c1ccc(NC(=O)Cc2cccc(O)c2)cc1)n1cncn1 (stereo not drawn) [Compound 137] | >5.00 mg/kg
17 | CCC(CC)C(c1ccc(NC(=O)C2=Cc3ccccc3OC2)cc1)n1ccnc1 (racemic) [Compound 31] | 5.00 mg/kg
18 | CC(C=Cc1ccccc1)C(=O)Nc1ccc(C(C(C)C)n2ccnc2)cc1 (mixture of isomers) [Compound 165] | >20.00 mg/kg
19 | CCC(CC)C(c1ccc(NC(=O)C(SC)c2ccccc2)cc1)n1ccnc1 (stereo not drawn) [Compound 50] | 2.50 mg/kg
20 | CC(C)C(c1ccc(NC(=O)c2cccnc2)cc1)n1ccnc1 (racemic) [Compound 196] | >10.00 mg/kg
21 | CCC(CC)C(c1ccc(NC(=O)CN2CCOCC2)cc1)n1ccnc1 (racemic) [Compound 47] | 2.50 mg/kg
22 | CC(C)C(c1ccc(NC(=O)Nc2nc3ccccc3n2C)cc1)n1ccnc1 (racemic) [Compound 277] | >5.00 mg/kg
23 | CC(C)C(c1ccc(NC(=O)Nc2cccc(F)c2)cc1)c1cccnc1 (racemic) [Compound 690] | >10.00 mg/kg
24 | CCC(CC)C(c1ccc(NC(=O)Cc2ccc(OC)cc2OC)cc1)n1ccnc1 (racemic) [Compound 126] | 2.50 mg/kg
25 | CCCN(C)C(C)C(c1ccc(NC(=O)Cc2ccc(OC)c(OC)c2)cc1)n1ccnc1 (single isomer, unassigned) [Compound 413] | 5.00 mg/kg
26 | CCCC(c1ccc(NC(=O)Cc2ccc(Cl)cc2)cc1)n1ccnc1 (stereo not drawn) [Compound 363] | >10.00 mg/kg
27 | CC(C)C(c1ccc(NC(=O)Cc2ccc(O)cc2)cc1)n1cncn1 (stereo not drawn) [Compound 134] | 5.00 mg/kg

What follows are molecules tested on metabolism of retinoic acid in human breast cancer cells (assay: Inhibition of retinoic acid (RA) metabolism (Example C.1)). Details: MCF-7 human breast cancer cells, 3H-RA as substrate; concentration needed to reduce the amount of metabolites to 50% of the control.
Assay type: cell-based
Method in brief: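 MCF-7 cells, pre-stimulated with RA the day before, incubated with ³H-RA substrate and test compound in 1% DMSO. Polar ³H-metabolites separated from unmetabolized RA and counted by scintillation. IC50 is the concentration cutting metabolite formation to 50% of control, with blank run alongside.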

Row | IC50 | SMILES
28 | > 100 nM | CCCCC(c1ccc(NC(=O)/C(C)=C/c2ccccc2)cc1)(C(C)C)n1ccnc1 (racemic) [Compound 761]
29 | 3.16 nM | CC(C)C(c1ccc(NC(=O)Cc2ccc(O)cc2)cc1)n1ccnc1 (stereo not drawn) [Compound 668]
30 | 5 nM | C=C(C)C(=O)Nc1ccc(C(C(C)C)n2ccnc2)cc1 (racemic) [Compound 597]
31 | 7.79 nM | CC(C)NC(=O)Nc1ccc(C(C(C)C)n2ccnc2)cc1 (racemic) [Compound 268]
32 | > 100 nM | O=C(CC1COc2ccccc2O1)Nc1ccc(C(c2ccccc2)n2ccnc2)cc1 (stereo not drawn) [Compound 426]
33 | 16 nM | CC(C)C(c1ccc(NC(=O)Nc2ccc3c(c2)OCCO3)cc1)n1ccnc1 (racemic) [Compound 276]
34 | 2.36 nM | CCC(=O)Nc1ccc(C(C(C)C)n2ccnc2)cc1 (racemic) [Compound 163]
35 | 23.9 nM | C/C(=C\c1ccc2[nH]c(=O)ccc2c1)C(=O)Nc1ccc(C(C(C)C)n2ccnc2)cc1 (racemic) [Compound 598]
36 | 15.7 nM | O=C(/C=C/c1ccccc1)Nc1ccc(C(c2cccc(F)c2)n2cncn2)cc1 (racemic) [Compound 618]
37 | 6.36 nM | C/C(=C\c1ccc2nn(C)nc2c1)C(=O)Nc1ccc(C(C(C)C)n2ccnc2)cc1 (racemic) [Compound 599]
38 | 0.507 nM | CC(C(c1ccc(NC(=O)Cc2ccc(O)c(Cl)c2)cc1)n1cncn1)N(C)C (single isomer, unassigned) [Compound 289]
39 | 2.1 nM | CC(C)C(c1ccc(NC(=O)Cc2cccc3ccccc23)cc1)n1ccnc1 (racemic) [Compound 246]
40 | 40.1 nM | C/C(=C\c1ccc2ccccc2c1)C(=O)Nc1ccc(C(C(C)C)n2ccnc2)cc1 (racemic) [Compound 591]
41 | 1.64 nM | CC(C)C(c1ccc(NC(=O)c2nccc3ccccc23)cc1)n1ccnc1 (stereo not drawn) [Compound 229]
42 | 75.8 nM | CC(O)C(=O)Nc1ccc(C(C(C)C)n2ccnc2)cc1 (stereo not drawn) [Compound 249]
43 | 1.85 nM | CC(C)C(c1ccc(NC(=O)Cc2cccc(O)c2)cc1)n1cncn1 (stereo not drawn) [Compound 137]
44 | 2.63 nM | CCC(CC)C(c1ccc(NC(=O)C2=Cc3ccccc3OC2)cc1)n1ccnc1 (racemic) [Compound 31]
45 | 10.8 nM | CC(C=Cc1ccccc1)C(=O)Nc1ccc(C(C(C)C)n2ccnc2)cc1 (mixture of isomers) [Compound 165]
46 | 7.44 nM | CCC(CC)C(c1ccc(NC(=O)C(SC)c2ccccc2)cc1)n1ccnc1 (stereo not drawn) [Compound 50]
47 | 22.3 nM | CC(C)C(c1ccc(NC(=O)c2cccnc2)cc1)n1ccnc1 (racemic) [Compound 196]
48 | 1.33 nM | CCC(CC)C(c1ccc(NC(=O)CN2CCOCC2)cc1)n1ccnc1 (racemic) [Compound 47]
49 | 1.17 nM | CC(C)C(c1ccc(NC(=O)Nc2nc3ccccc3n2C)cc1)n1ccnc1 (racemic) [Compound 277]
50 | > 100 nM | CC(C)C(c1ccc(NC(=O)Nc2cccc(F)c2)cc1)c1cccnc1 (racemic) [Compound 690]
51 | < 0.01 nM | CCC(CC)C(c1ccc(NC(=O)Cc2ccc(OC)cc2OC)cc1)n1ccnc1 (racemic) [Compound 126]
52 | 5.27 nM | CCCN(C)C(C)C(c1ccc(NC(=O)Cc2ccc(OC)c(OC)c2)cc1)n1ccnc1 (single isomer, unassigned) [Compound 413]
53 | 1.42 nM | CCCC(c1ccc(NC(=O)Cc2ccc(Cl)cc2)cc1)n1ccnc1 (stereo not drawn) [Compound 363]
54 | 2.98 nM | CC(C)C(c1ccc(NC(=O)Cc2ccc(O)cc2)cc1)n1cncn1 (stereo not drawn) [Compound 134]
